According to patent publication US20220119825A1, “SCALABLE PEPTIDE-GPCR INT[…] SYSTEMS” (THE TRUSTEES OF COLUMBIA UNIVERSITY IN THE CITY OF NEW YORK, priority 2019, published 2022):
Where two headings read alike, the source gives them in different places. Ends that are not written are not given here. Peptide text beside a SMILES is read from it.

T1: Bc.Ste2, Ste2-like mating GPCR of Botrytis cinerea (Botrytis cinerea)
T1 chain: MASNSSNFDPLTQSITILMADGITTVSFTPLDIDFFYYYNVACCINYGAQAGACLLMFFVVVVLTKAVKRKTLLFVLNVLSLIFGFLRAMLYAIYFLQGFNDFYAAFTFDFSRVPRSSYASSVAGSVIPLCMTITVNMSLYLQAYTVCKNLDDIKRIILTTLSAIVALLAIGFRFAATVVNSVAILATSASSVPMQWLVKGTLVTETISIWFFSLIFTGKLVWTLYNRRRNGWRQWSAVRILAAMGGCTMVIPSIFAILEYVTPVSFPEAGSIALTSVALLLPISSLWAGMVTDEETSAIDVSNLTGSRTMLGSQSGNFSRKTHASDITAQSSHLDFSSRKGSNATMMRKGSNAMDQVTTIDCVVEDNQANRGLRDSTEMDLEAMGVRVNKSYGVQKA

T2: Le.Ste2, Ste2-like mating GPCR of Lodderomyces elongisporous (Lodderomyces elongisporous)
T2 chain: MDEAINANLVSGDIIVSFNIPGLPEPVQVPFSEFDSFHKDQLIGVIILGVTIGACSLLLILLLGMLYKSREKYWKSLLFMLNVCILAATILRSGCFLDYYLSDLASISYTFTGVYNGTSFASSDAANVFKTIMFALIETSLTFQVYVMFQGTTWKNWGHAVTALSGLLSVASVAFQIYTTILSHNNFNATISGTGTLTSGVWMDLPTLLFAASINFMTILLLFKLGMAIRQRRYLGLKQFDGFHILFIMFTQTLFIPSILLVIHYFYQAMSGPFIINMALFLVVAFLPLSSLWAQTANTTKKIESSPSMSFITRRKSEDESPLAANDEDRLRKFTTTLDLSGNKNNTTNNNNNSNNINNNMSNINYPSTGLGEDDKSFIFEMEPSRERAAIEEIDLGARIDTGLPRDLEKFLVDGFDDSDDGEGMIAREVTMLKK

T3: Hj.Ste2, Ste2-like mating GPCR of Hypocrea jecorina (Hypocrea jecorina)
T3 chain: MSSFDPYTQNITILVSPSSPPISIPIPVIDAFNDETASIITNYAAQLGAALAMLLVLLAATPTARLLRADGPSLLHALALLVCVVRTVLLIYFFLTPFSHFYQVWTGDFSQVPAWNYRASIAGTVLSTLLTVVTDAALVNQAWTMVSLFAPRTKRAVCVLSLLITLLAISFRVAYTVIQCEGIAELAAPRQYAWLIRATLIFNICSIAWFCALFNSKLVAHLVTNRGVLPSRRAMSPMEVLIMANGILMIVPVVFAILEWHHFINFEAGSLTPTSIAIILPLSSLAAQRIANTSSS

T4: Bb.Ste2, Ste2-like mating GPCR of Beauvaria bassiana (Beauvaria bassiana)
T4 chain: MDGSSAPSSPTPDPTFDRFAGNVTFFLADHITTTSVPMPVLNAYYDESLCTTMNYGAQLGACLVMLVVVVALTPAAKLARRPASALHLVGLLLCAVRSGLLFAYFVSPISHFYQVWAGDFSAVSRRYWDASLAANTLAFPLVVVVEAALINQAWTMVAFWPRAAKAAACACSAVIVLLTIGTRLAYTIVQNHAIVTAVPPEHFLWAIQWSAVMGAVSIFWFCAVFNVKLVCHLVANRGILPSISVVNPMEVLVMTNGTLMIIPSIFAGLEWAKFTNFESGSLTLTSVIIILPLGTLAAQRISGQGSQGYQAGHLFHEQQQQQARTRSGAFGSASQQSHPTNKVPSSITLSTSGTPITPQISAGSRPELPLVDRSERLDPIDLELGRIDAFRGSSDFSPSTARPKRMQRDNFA


How the values were obtained:
[1] = tested on: Ste2-like fungal mating GPCRs expressed in S. cerevisiae; assay: GPCR on-off activity and dose response assay (FUS1 promoter coRFP fluorescent reporter, strain JTy014, synthetic peptide ligand); assay type: cell-based, Ascomycete fungi (expressed in S. cerevisiae); design: EC50: unit: log10 M; settings: for Hill Slope: Hill slope of 4-parameter fit; for Bttm: bottom of 4-parameter fit of the fluorescence dose response curve (basal activation); for Fold Change: fold-change activation from Top and Bttm of the fit; for Span: span of 4-parameter fit of the fluorescence dose response curve; for Top: top of 4-parameter fit of the fluorescence dose response curve (maximal activation)
Experimental: GPCR on-off activity and dose response assay. GPCR activity and response to increasing dosage of synthetic peptide ligand was measured in strain JTy014 using the genomically integrated FUS1-promoter controlled coRFP as a fluorescent reporter. JTy014 strains carrying the appropriate GPCR expression plasmid were assayed in 96-well microtiter plates using 200 μl total volume, cultured at 30° C. and 800 RPM. Cells were seeded at an A600 of 0.3 (Note: all herein reported cell density values are based on A600 measurements in 96-well plates of a 200 μl volume of cultures with a path length of ˜0.3 cm performed in an Infinite M200 plate reader from Tecan) in SC media lacking uracil (selective component). All measurements were performed in triplicates. RFP fluorescence (excitation: 588 nm, emission: 620 nm) and culture turbidity (A600) were measured after 8 hours using an Infinite M200 plate reader (Tecan). Since the optical density values were outside the linear range of the photodetector, all optical density values were first corrected using the following formula to give true optical density values: […]
where Ameas is the measured optical density, Asat is the saturation value of the photodetector and k is the true optical density at which the detector reaches half saturation of the measured optical density^36. Dose-response was measured at different concentrations (11 five-fold dilutions in H2O starting at 40 μM peptide, H2O was used as “no peptide” control) of the appropriate synthetic peptide ligand. All fluorescence values were normalized by the A600, and plotted against the log(10)-converted peptide concentrations. Data were fit to a four-parameter non-linear regression model using Prism (GraphPad) in order to extract GPCR-specific values for basal activation, maximal activation, EC50 and the Hill coefficient. Fold-activation was calculated for each GPCR as the maximum A600-normalized fluorescence of peptide-treated cells divided by the A600 normalized fluorescence value of water-treated cells.

[2] = target: T1, Bc.Ste2, Ste2-like mating GPCR of …; assay: cell-based or functional assay
[3] = target: T2, Le.Ste2, Ste2-like mating GPCR of …; assay: cell-based or functional assay
[4] = target: T3, Hj.Ste2, Ste2-like mating GPCR of …; assay: cell-based or functional assay
[5] = target: T4, Bb.Ste2, Ste2-like mating GPCR of …; assay: cell-based or functional assay
[6] = peptide/GPCR pair, synthetic cognate peptide, fluorescence read-out, 4-parameter fit of dose response curves (FIG. 6), values given as negative (log) numbers

| Molecule | Hill Slope [1] | Bttm [1] | Fold Change [1] | EC50 [1, 6] | Span [1] | Top [1] | further results |
| --- | --- | --- | --- | --- | --- | --- | --- |
| CC[C@H](C)[C@H](NC(=O)[C@H](Cc1c[nH]c2ccccc12)NC(=O)CN)C(=O)NCC(=O)N[C@@H](CCCNC(=N)N)C(=O)N[C@@H](CS)C(=O)NCC(=O)N[C@H](C(=O)N1CCC[C@H]1C(=O)NCC(=O)N[C@@H](CO)C(=O)N[C@@H](CO)C(=O)N[C@@H](CS)C(=O)O)C(C)C [Bm] (H-GWIGRCGVPGSSC-OH; N-terminus and C-terminus assumed) | 1.2 | 30.3 | 5.2 | −6.7 | 128.4 | 158.8 | – |
| FSWNYRLKWQPIS [Cn] | 1.1 | 29.7 | 5.1 | −7.4 | 122.5 | 152.2 | – |
| H-KPHWTTYGYYEPQ-OH [Cp] | 0.8 | 36.2 | 7.0 | −8.5 | 217.8 | 254.0 | – |
| H-KWGWLRFFPGEPFV-OH [Cau] | 0.8 | 50.6 | 6.7 | −8.1 | 286.3 | 336.9 | – |
| H-WSWITLRPGQPIF-OH [Kl] | 0.8 | 37.2 | 6.0 | −7.3 | 185.9 | 223.1 | – |
| S. cerevisiae Ste2: natural S. cerevisiae mating GPCR; value is its sensitivity to its cognate peptide ligand | – | – | – | – | – | – | EC50 ([1]; cognate synthetic peptide, fluorescence/A600 after 8 hours, four-parameter fit, read-out: EC50 (sensitivity of the GPCR for its cognate ligand)): 1.25 nM |
| H-KFKFRLTRYGWFSPN-OH [Ct] | 1.2 | 32.0 | 5.2 | −8.2 | 134.6 | 166.7 | – |
| H-NWHWLRLDPGQPLY-OH [Sca] | 0.7 | 24.3 | 6.4 | −8.1 | 131.1 | 155.4 | – |
| H-WHWVRLRKGQGLF-OH [Cg] | 2.4 | 30.5 | 7.0 | −5.9 | 183.0 | 213.6 | – |
| NCCCC[C@H](NC(=O)[C@H](Cc1c[nH]c2ccccc12)NC(=O)[C@H](Cc1c[nH]c2ccccc12)NC(=O)[C@H](CS)NC(=O)[C@@H](N)Cc1c[nH]c2ccccc12)C(=O)NCC(=O)N[C@@H](CCC(N)=O)C(=O)N1CCC[C@H]1C(=O)N[C@@H](CS)C(=O)N[C@@H](Cc1c[nH]c2ccccc12)C(=O)O [Fg] (H-WCWWKGQPCW-OH) | 1.3 | 29.2 | 8.0 | −7.1 | 203.0 | 232.2 | – |
| WCGRPGQPC [Bc peptide ligand #1 WCGRPGQPC] | – | – | – | – | – | – | Bttm (FUS1p-RFP reporter) [2]: 28.6 fluorescence/A600 (not printed); EC50 (FUS1p-RFP reporter) [2]: -8.1 log10 M (not printed); Fold Change (FUS1p-RFP reporter) [2]: 12.3 fold; Span (FUS1p-RFP reporter) [2]: 323 fluorescence/A600 (not printed); Top (FUS1p-RFP reporter) [2]: 352 fluorescence/A600 (not printed) |
| She. Ste2: genome-mined mating GPCR activated by near-cognate peptide with two additional N-terminal residues (protein) MKPAAGPASSPFDPFNQTFYLTGPDNTTVPVSVPQVDYIWHYIIGTSINYGSQIGACLLMLLVMLTLTSKSRFSRAATLINVASLLIGVIRCVLLAVYFTSSLTELYALFVGDYSQVRRSDLCVSAVATFFSLPQLVLIEAALFLQAYSMIKMWPSLWRAVVLAMSVVVAVCAIGFKFASVVMRMRSTLTLDDSLDFWLVEVDLAFTATTIFWFCFIYIIRLVIHMWEYRSILPPMGSVSAMEVLVMTNGALMLVPVIFAAIEINGLSSFESGSLVHTSVIVLLPLGSLIAQAMTRPDGYVQRTNTSGASGASGAHPGRNGSGHGGHGGAYSRAMTNTLNTLDTLDTVDSKTSIMHHHHHHHRNHSNGMSKTKANSGTWSHASDANSTNAMISGGIATQVRIQANQSTLGNTGMSGGSGAPNSHTRNNSLAAMEPVEKQLHDIDATPLSASDCRVWVDREVEVRRDMV | – | – | – | – | – | – | activation by alternative near-cognate peptide ligand candidates ([1]; 40 μM synthetic peptide ligand, 8 hours): can be activated |
| WMWTRYGRFSPV [Le peptide ligand #1 WMWTRYGRFSPV] | – | – | – | – | – | – | Bttm (FUS1p-RFP reporter) [3]: 22.9 fluorescence/A600 (not printed); EC50 (FUS1p-RFP reporter) [3]: -7.7 log10 M (not printed); Fold Change (FUS1p-RFP reporter) [3]: 18 fold; Span (FUS1p-RFP reporter) [3]: 390 fluorescence/A600 (not printed); Top (FUS1p-RFP reporter) [3]: 412 fluorescence/A600 (not printed) |
| WCYRIGEPCW (modifications not checked) [Hj peptide ligand #1 (Table 3: …)] | – | – | – | – | – | – | Bttm (FUS1p-RFP reporter) (fluorescence/A600 (not given)) [4]: 53; EC50 (FUS1p-RFP reporter) (log10 M (not given)) [4]: -7.8; Fold Change (FUS1p-RFP reporter) [4]: 8.1 fold; Span (FUS1p-RFP reporter) (fluorescence/A600 (not given)) [4]: 376; Top (FUS1p-RFP reporter) (fluorescence/A600 (not given)) [4]: 430 |
| WCMRPGQPCW [Bb peptide ligand #1 WCMRPGQPCW] | – | – | – | – | – | – | Bttm (FUS1p-RFP reporter) [5]: 25.2 fluorescence/A600 (not printed); EC50 (FUS1p-RFP reporter) [5]: -8.5 log10 M (not printed); Fold Change (FUS1p-RFP reporter) [5]: 9.7 fold; Span (FUS1p-RFP reporter) [5]: 219 fluorescence/A600 (not printed); Top (FUS1p-RFP reporter) [5]: 244 fluorescence/A600 (not printed) |
